Drawing on patent US20230212180A1, “SUBSTITUTED PYRAZINE COMPOUND, PHARMACEUTICAL COMPOSITION COMPRISING SAME, AND USE THEREOF” (Sichuan Kelun-Biotech Biopharmaceutical Co., Ltd., priority 2020, published 2023), this text covers IC50 for nine compounds.

Each structure is given as a SMILES string. Read-outs that look alike come from different tables or passages of the source. Some results are limits rather than exact numbers.

Test [1] concerns the target T1, CYP3A4 (Homo sapiens, UniProt P08684).
T1 construct: purchased Promega
As to the kind of experiment: Biochemical assay for CYP enzyme inhibition, P450-Glo CYP3A4 Screening System. The class given is in vitro ADME. As for the experimental part:
(§1) Test Example 5: Biochemical Assay for CYP Enzyme (Cytochrome P450) Inhibition
P450-Glo™ CYP3A4 Screening System, (Promega).
(§2) BMG PHERAstar FS Luminescent.
(§3) The experiments were carried out separately according to the instructions of the kits. The steps were as follows:
3.3. Inhibition Against CYP3A4:
Test group: The test compounds at different concentrations were added into a microplate, and Luciferin-IPA ([…]), K3PO4 (100 mM), and CYP3A4 (2 nM) were added into each well, and pre-incubated at room temperature for 10 min. Thereafter, an NADPH regeneration system was added. The mixture was reacted at room temperature for 30 min. Finally, an equal volume of detection buffer was added and incubated at room temperature for 20 min, followed by chemiluminescence detection.
(§4) Negative control group: The experimental method for the negative control group was the same as that for the test group, except that the test compound was not added.
Blank control group: The experimental method for the blank control group was the same as that for the test group, except that the test compound was not added and that CYP3A4 was replaced with CYP3A4 Membrance (2 nM).
(§5) Percentage inhibition=(1−(the chemiluminescent signal value of the test compound group at a certain test concentration−the chemiluminescent signal value of the blank control group)/(the chemiluminescent signal value of the negative control group−the chemiluminescent signal value of the blank control group))×100%.
(§6) When the percentage inhibition was between 30% and 80%, a single value or a value range of the half maximal inhibitory concentration (IC50) of the compound against the CYP enzyme was estimated based on the following equation: IC50=X×(1−percentage inhibition)/percentage inhibition, wherein X was the test concentration of the compound.

For test [2], the system named is NCI-H358 cell (human non-small cell lung cancer cell). Put plainly: Inhibition of the proliferation activity of NCI-H358 cell (CellTiter-Glo). The format is cell-based. To be noted: 120 h, 5 days. As for the experimental part:
Test Example 4: Experiment on the Inhibition of the Proliferation Activity of NCI-H358 Cell (Human Non-Small Cell Lung Cancer Cell)
cell: NCI-H358 (Nanjing CoBioer);
kit: CellTiter-Glo® Luminescent Cell Viability Assay Kit (Promega).
inoculation amount of cell: 1500 cells/well;
incubation conditions for compounds: 37° C., 5% CO2;
incubation duration: 5 days;
detecting temperature: room temperature;
chemiluminescence detection using the BMG PHERAstar FS reader.
Cells were cultured in a medium containing 10% fetal bovine serum under the culture conditions of 37° C. and 5% CO2. An appropriate amount of cells were plated into a 96-well plate and cultured overnight in an incubator to allow the cells to adhere to the wall. The following day, the medium was removed and a complete medium containing a pre-diluted compound was added and incubated at 37° C. for 5 days. On the fifth day, the detection reagent CellTiter-Glo® was added into each well. Chemiluminescence was adopted to detect the relative luminescence units (RLUs) of the wells.
The result of a well containing cell-free medium, treated with CellTiter-Glo®, was obtained as the blank value. Cell viability (%)=(sample RLU−blank RLU)/(vehicle RLU−blank RLU)×100%, and maximum inhibition rate (%)=100%−cell viabilitymax. conc. (%). The half maximal inhibitory concentration (IC50) of the compound was calculated by fitting the curve according to the four-parameter logistic model.

For test [3], the target named is T2, CYP1A2 (Homo sapiens, UniProt P05177).
T2 construct: purchased Promega
T2 sequence (P05177 1-516): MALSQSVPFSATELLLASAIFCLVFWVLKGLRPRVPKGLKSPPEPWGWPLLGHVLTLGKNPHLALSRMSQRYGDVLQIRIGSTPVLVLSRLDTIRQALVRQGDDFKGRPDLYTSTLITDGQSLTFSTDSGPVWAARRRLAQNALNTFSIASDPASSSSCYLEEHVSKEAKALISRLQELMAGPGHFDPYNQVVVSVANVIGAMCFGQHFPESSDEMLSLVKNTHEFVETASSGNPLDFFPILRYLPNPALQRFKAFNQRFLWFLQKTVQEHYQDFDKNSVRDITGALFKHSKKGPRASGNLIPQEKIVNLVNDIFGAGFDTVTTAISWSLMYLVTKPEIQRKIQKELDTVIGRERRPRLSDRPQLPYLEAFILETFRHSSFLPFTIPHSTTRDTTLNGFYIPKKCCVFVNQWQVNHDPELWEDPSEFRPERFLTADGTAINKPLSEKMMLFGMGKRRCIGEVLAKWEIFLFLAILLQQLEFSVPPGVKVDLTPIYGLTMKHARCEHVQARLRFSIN
As to the kind of experiment: Biochemical assay for CYP enzyme inhibition, P450-Glo CYP1A2 Screening System. The class given is in vitro ADME. As for the experimental part: as §1
P450-Glo™ CYP1A2 Screening System, (Promega);
as §2, §3
3.1. Inhibition Against CYP1A2:
Test group: The test compounds at different concentrations were added into a microplate, and Luciferin-ME (100 μM), K3PO4 (100 mM), and CYP1A2 (0.01 μmol/μL) were added into each well, and pre-incubated at room temperature for 10 min. Thereafter, an NADPH regeneration system was added. The mixture was reacted at room temperature for 30 min. Finally, an equal volume of detection buffer was added and incubated at room temperature for 20 min, followed by chemiluminescence detection.
as §4
Blank control group: The experimental method for the blank control group was the same as that for the test group, except that the test compound was not added and that CYP1A2 was replaced with CYP1A2 Membrance (0.01 μmol/μL).
as §5, §6

Test [4] relates to KYSE-520 cell (human esophageal squamous cell carcinoma cell). Put plainly: Inhibition of the proliferation activity of KYSE-520 cell (CellTiter-Glo). The class given is cell-based. As to conditions: 120 h, KYSE-520 cell proliferation, 5 days. An outline of the steps: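 KYSE-520 cells, 1500/well, adhered overnight, then exposed to compound in complete medium with 10% FBS for 5 days at 37° C, 5% CO2. Viability by CellTiter-Glo luminescence, blank-corrected against cell-free medium and normalised to vehicle. IC50 from four-parameter logistic fit.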

Where [5] appears, read: estimated from percentage inhibition, read-out: IC50 (μM) CYP3A4.
The mark [6] stands for this setting: estimated from percentage inhibition, read-out: IC50 (μM) CYP1A2.

T1 sequence (P08684 whole entry): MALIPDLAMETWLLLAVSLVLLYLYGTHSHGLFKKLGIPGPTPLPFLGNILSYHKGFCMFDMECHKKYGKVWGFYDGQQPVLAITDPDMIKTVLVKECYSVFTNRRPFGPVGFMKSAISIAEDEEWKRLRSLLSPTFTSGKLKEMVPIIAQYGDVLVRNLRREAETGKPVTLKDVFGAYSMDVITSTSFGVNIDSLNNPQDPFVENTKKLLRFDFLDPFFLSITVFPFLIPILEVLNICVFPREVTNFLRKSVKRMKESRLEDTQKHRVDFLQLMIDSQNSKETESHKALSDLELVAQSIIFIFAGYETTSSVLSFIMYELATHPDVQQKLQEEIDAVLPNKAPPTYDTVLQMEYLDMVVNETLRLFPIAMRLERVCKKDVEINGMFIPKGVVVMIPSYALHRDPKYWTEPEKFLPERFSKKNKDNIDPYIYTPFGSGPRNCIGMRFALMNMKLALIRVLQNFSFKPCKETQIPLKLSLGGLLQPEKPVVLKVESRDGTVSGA

With `CC(C)(O)C1CN(c2nccc(Sc3ncc(N4CCC5(CC4)Cc4ncccc4[C@H]5N)nc3N)c2Cl)C1` [Example 46, (S)-2-(1-(4-(3-amino-5-(5-amino-5,7-dihydrospiro[cyclopenta[b]pyridine-6,4′-piperidin]-1′-yl)pyrazin-2-ylthio)-3-chloropyridin-2-yl)azetidin-3-yl)propan-2-ol], the IC50 was greater than 10 µM in test [1] (setting [5]), 28 nM in test [2], greater than 10 µM in test [3] (setting [6]) and 70 nM in test [4].
Consider `C[C@@H]1OCC2(CCN(c3ncc(Sc4ccnc(N5CC(C(C)(C)O)C5)c4Cl)nc3CO)CC2)[C@@H]1N` [Example 12, 2-(1-(4-(5-((3S,4S)-4-amino-3-methyl-2-oxa-8-azaspiro[4.5]decan-8-yl)-6-(hydroxymethyl)pyrazin-2-ylthio)-3-chloropyridin-2-yl)azetidin-3-yl)propan-2-ol], for which the IC50 in test [1] was greater than 10 µM; in test [2] it was 18 nM; in test [3], greater than 10 µM; in test [4], 40 nM.
In the case of `C[C@@H]1OCC2(CCN(c3ncc(Sc4ccnc(N5CC(C)(CS(C)(=O)=O)C5)c4Cl)nc3CO)CC2)[C@@H]1N` [Example 29, (3-((3S,4S)-4-amino-3-methyl-2-oxa-8-azaspiro[4.5]decan-8-yl)-6-(3-chloro-2-(3-methyl-3-(methylsulfonylmethyl)azetidin-1-yl)pyridin-4-ylthio)pyrazin-2-yl)methanol], the IC50 in test [1] is greater than 10 µM; in test [2], 40 nM; in test [3] it was greater than 10 µM; in test [4] it was 40 nM.
Take `CC(C)(O)C1CN(c2nccc(Sc3cnc(N4CCC5(CC4)Oc4ccccc4[C@H]5N)c(CO)n3)c2Cl)C1` [Example 22, (R)-2-(1-(4-(5-(3-amino-3H-spiro[benzofuran-2,4′-piperidin]-1′-yl)-6-(hydroxymethyl)pyrazin-2-ylthio)-3-chloropyridin-2-yl)azetidin-3-yl)propan-2-ol]: the 50% inhibitory concentration (IC50) in test [1] (setting [5]) was greater than 10 µM; in test [2], 31 nM; in test [3] (setting [6]), greater than 10 µM; in test [4] it was 50 nM.
As for `C[C@@H]1OCC2(CCN(c3ncc(Sc4ccnc(N5CC(C)(CO)C5)c4Cl)nc3CO)CC2)[C@@H]1N` [Example 27, (3-((3S,4S)-4-amino-3-methyl-2-oxa-8-azaspiro[4.5]decan-8-yl)-6-(3-chloro-2-(3-(hydroxymethyl)-3-methylazetidin-1-yl)pyridin-4-ylthio)pyrazin-2-yl)methanol], the IC50 in test [1] is greater than 10 µM; in test [2], 30 nM; in test [3] it was greater than 10 µM; in test [4], 60 nM.
With `CC(C)(O)C1CN(c2nccc(Sc3cnc(N4CCC5(CC4)Cc4ccccc4[C@H]5N)c(CO)n3)c2Cl)C1` [Example 23, (S)-2-(1-(4-(5-(1-amino-1,3-dihydrospiro[indene-2,4′-piperidin]-1′-yl)-6-(hydroxymethyl)pyrazin-2-ylthio)-3-chloropyridin-2-yl)azetidin-3-yl)propan-2-ol], the half-inhibitory concentration (IC50) in test [1] (setting [5]) is greater than 10 µM; in test [2], 5 nM; in test [3] (setting [6]), greater than 10 µM; in test [4], 140 nM.
With `C[C@@H]1OCC2(CCN(c3ncc(Sc4ccnc(N5CC(CO)C5)c4Cl)nc3CO)CC2)[C@@H]1N` [Example 6, (3-((3S,4S)-4-amino-3-methyl-2-oxa-8-azaspiro[4.5]decan-8-yl)-6-(3-chloro-2-(3-(hydroxymethyl)azetidin-1-yl)pyridin-4-ylthio)pyrazin-2-yl)methanol], the 50% inhibitory concentration (IC50) in test [1] is greater than 10 µM; in test [2], 74 nM; in test [3], greater than 10 µM; in test [4], 40 nM.
Turning to `C[C@@H]1OCC2(CCN(c3ncc(Sc4ccnc(N5CC(CS(C)(=O)=O)C5)c4Cl)nc3CO)CC2)[C@@H]1N` [Example 26, (3-((3S,4S)-4-amino-3-methyl-2-oxa-8-azaspiro[4.5]decan-8-yl)-6-(3-chloro-2-(3-(methylsulfonylmethyl)azetidin-1-yl)pyridin-4-ylthio)pyrazin-2-yl)methanol], the IC50 in test [1] is greater than 10 µM; in test [2], 32 nM; in test [3], greater than 10 µM; in test [4] it was 30 nM.
`C[C@@H]1OCC2(CCN(c3ncc(Sc4ccnc(N5CCCC5CO)c4Cl)nc3CO)CC2)[C@@H]1N` (stereo partly drawn) [Example 2]: the IC50 in test [1] (setting [5]) was greater than 10 µM; in test [2], 40 nM; in test [3] it was greater than 10 µM; in test [4], 100 nM.
